Assay results published in patent US8987250B2 (Gilead Sciences, Inc., priority 2012, dated 2015).

Each compound was assayed on HIV-IIIb (assay: Test A: Antiviral Assay in MT4 Cells). Conditions: Human immunodeficiency virus 1, IIIB, MT4, 120 h, Table 2; MT-4 cells infected with HIV-IIIb, 5 days of incubation, CellTiter-Glo; read-out: EC50.
Assay type: cell-based
Outline: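 MT-4 cells pre-infected with HIV-IIIb (0.004 m.o.i.) at 37 °C, then exposed to 3-fold serial compound dilutions (10 concentrations, quadruplicate) in RPMI 1640/10% FBS. After 5 days at 37 °C, viability read by CellTiter-Glo luminescence.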

Row | SMILES | EC50 [nM]
1 | Cc1cc2nc(-c3ccnc(-c4ccc5c(c4)n(C)c(=O)n5C)c3)sc2c(-c2ccc(Cl)cc2)c1[C@H](OC(C)(C)C)C(=O)O [Compound 183, (S)-2-tert-butoxy-2-(7-(4-chlorophenyl)-2-(2-(1,3-dimethyl-2-oxo-2,3-dihydro-1H-benzo[d]imidazol-5-yl)pyridin-4-yl)-5-methylbenzo[d]thiazol-6-yl)acetic acid] | 18
2 | Cc1cc2nc(-c3ccnc(-c4cnc5c(c4)OCC(=O)N5)c3)sc2c(-c2ccc(Cl)cc2)c1[C@H](OC(C)(C)C)C(=O)O [Compound 184, (S)-2-tert-butoxy-2-(7-(4-chlorophenyl)-5-methyl-2-(2-(3-oxo-3,4-dihydro-2H-pyrido[3,2-b][1,4]oxazin-7-yl)pyridin-4-yl)benzo[d]thiazol-6-yl)acetic acid] | 19
3 | Cc1cc2nc(-c3ccnc(-n4ccc5cccnc5c4=O)c3)sc2c(-c2ccc(Cl)cc2)c1[C@H](OC(C)(C)C)C(=O)O [Compound 187, (S)-2-tert-butoxy-2-(7-(4-chlorophenyl)-5-methyl-2-(2-(8-oxo-1,7-naphthyridin-7(8H)-yl)pyridin-4-yl)benzo[d]thiazol-6-yl)acetic acid] | 25
4 | Cc1cc2nc(-c3ccnc(-c4ccc5c(=O)n(C)n(C)c5c4)c3)sc2c(-c2ccc(Cl)cc2)c1[C@H](OC(C)(C)C)C(=O)O [Compound 188, (S)-2-tert-butoxy-2-(7-(4-chlorophenyl)-2-(2-(1,2-dimethyl-3-oxo-2,3-dihydro-1H-indazol-6-yl)pyridin-4-yl)-5-methylbenzo[d]thiazol-6-yl)acetic acid] | 12
5 | Cc1cc2nc(-c3ccnc(-n4ncc5ccccc54)c3)sc2c(-c2ccc(Cl)cc2)c1[C@H](OC(C)(C)C)C(=O)O [Compound 189, (S)-2-(2-(2-(1H-indazol-1-yl)pyridin-4-yl)-7-(4-chlorophenyl)-5-methylbenzo[d]thiazol-6-yl)-2-tert-butoxy acetic acid] | 249
6 | Cc1cc2nc(-c3ccnc(-c4nn(C)c5ccccc45)c3)sc2c(-c2ccc(Cl)cc2)c1[C@H](OC(C)(C)C)C(=O)O [Compound 190, (S)-2-tert-butoxy-2-(7-(4-chlorophenyl)-5-methyl-2-(2-(1-methyl-1H-indazol-3-yl)pyridin-4-yl)benzo[d]thiazol-6-yl)acetic acid] | 112
7 | Cc1cc2nc(-c3ccnc(-c4ccc5c(ccc(=O)n5C)c4)c3)sc2c(-c2ccc(Cl)cc2)c1[C@H](OC(C)(C)C)C(=O)O [Compound 191, (S)-2-tert-butoxy-2-(7-(4-chlorophenyl)-5-methyl-2-(2-(1-methyl-2-oxo-1,2-dihydroquinolin-6-yl)pyridin-4-yl)benzo[d]thiazol-6-yl)acetic acid] | 10
8 | CNc1ccc2cc(-c3cc(-c4nc5cc(C)c([C@H](OC(C)(C)C)C(=O)O)c(-c6ccc(Cl)cc6)c5s4)ccn3)ccc2n1 [Compound 192, (S)-2-tert-butoxy-2-(7-(4-chlorophenyl)-5-methyl-2-(2-(2-(methylamino)quinolin-6-yl)pyridin-4-yl)benzo[d]thiazol-6-yl)acetic acid] | 12
9 | Cc1cc2nc(-c3ccnc(-c4ccc5nc(N)ccc5c4)c3)sc2c(-c2ccc(Cl)cc2)c1[C@H](OC(C)(C)C)C(=O)O [Compound 193, (S)-2-(2-(2-(2-aminoquinolin-6-yl)pyridin-4-yl)-7-(4-chlorophenyl)-5-methylbenzo[d]thiazol-6-yl)-2-tert-butoxyacetic acid] | 9
10 | Cc1cc2nc(-c3ccc4c(=O)n(C)n(C)c4c3)sc2c(-c2ccc(Cl)cc2)c1[C@H](OC(C)(C)C)C(=O)O [Compound 194, (S)-2-tert-butoxy-2-(7-(4-chlorophenyl)-2-(1,2-dimethyl-3-oxo-2,3-dihydro-1H-indazol-6-yl)-5-methylbenzo[d]thiazol-6-yl)acetic acid] | 21
11 | Cc1cc2nc(-n3ccc4ccncc4c3=O)sc2c(-c2ccc(Cl)cc2)c1[C@H](OC(C)(C)C)C(=O)O [Compound 195, (S)-2-tert-butoxy-2-(7-(4-chlorophenyl)-5-methyl-2-(1-oxo-2,7-naphthyridin-2(1H)-yl)benzo[d]thiazol-6-yl)acetic acid] | 11
12 | Cc1cc2nc(-c3ccnc(-c4cnc5c(c4)cc(C)n5C)c3)sc2c(-c2ccc(Cl)cc2)c1[C@H](OC(C)(C)C)C(=O)O [Compound 196, (S)-2-tert-butoxy-2-(7-(4-chlorophenyl)-2-(2-(1,2-dimethyl-1H-pyrrolo[2,3-b]pyridin-5-yl)pyridine-4-yl)-5-methylbenzo[d]thiazol-6-yl)acetic acid] | 33
13 | Cc1cc2nc(-c3cnc4c(c3)cc(C)n4C)sc2c(-c2ccc(Cl)cc2)c1[C@H](OC(C)(C)C)C(=O)O [Compound 197, (S)-2-tert-butoxy-2-(7-(4-chlorophenyl)-2-(1,2-dimethyl-1H-pyrrolo[2,3-b]pyridin-5-yl)-5-methylbenzo[d]thiazol-6-yl)acetic acid] | 12
14 | Cc1cc2nc(-c3cnc4c(c3)c(C)cn4C)sc2c(-c2ccc(Cl)cc2)c1[C@H](OC(C)(C)C)C(=O)O [Compound 198, (S)-2-tert-butoxy-2-(7-(4-chlorophenyl)-2-(1,3-dimethyl-1H-pyrrolo[2,3-b]pyridin-5-yl)-5-methylbenzo[d]thiazol-6-yl)acetic acid] | 39
15 | Cc1cc2nc(-c3ccc4nc(C)n([C@H]5CCN(C)C5)c4c3)sc2c(-c2ccc(Cl)cc2)c1[C@H](OC(C)(C)C)C(=O)O [Compound 200, (S)-2-tert-butoxy-2-(7-(4-chlorophenyl)-5-methyl-2-(2-methyl-1-((S)-1-methylpyrrolidin-3-yl)-1H-benzo[d]imidazol-6-yl)benzo[d]thiazol-6-yl)acetic acid] | 14
16 | Cc1cc2nc(-c3cnnc(-c4ccc5c(cnn5C)c4)c3)sc2c(-c2ccc(Cl)cc2)c1[C@H](OC(C)(C)C)C(=O)O [Compound 201, (S)-2-tert-butoxy-2-(7-(4-chlorophenyl)-5-methyl-2-(6-(1-methyl-1H-indazol-5-yl)pyridazin-4-yl)benzo[d]thiazol-6-yl)acetic acid] | 7
17 | COc1ccc(-c2nccc(-c3nc4cc(C)c([C@H](OC(C)(C)C)C(=O)O)c(-c5ccc(Cl)cc5)c4s3)n2)cc1OC [Compound 203, (S)-2-tert-butoxy-2-(7-(4-chlorophenyl)-2-(2-(3,4-dimethoxyphenyl)pyrimidin-4-yl)-5-methylbenzo[d]thiazol-6-yl)acetic acid] | 12
18 | Cc1cc2nc(-c3ccc(-c4cnn(C)c4C)cc3)sc2c(-c2ccc(Cl)cc2)c1[C@H](OC(C)(C)C)C(=O)O [Compound 204, (S)-2-tert-butoxy-2-(7-(4-chlorophenyl)-2-(4-(1,5-dimethyl-1H-pyrazol-4-yl)phenyl)-5-methylbenzo[d]thiazol-6-yl)acetic acid] | 155
19 | Cc1cc2nc(-c3ccnc(C4CCN(C)CC4)n3)sc2c(-c2ccc(Cl)cc2)c1[C@H](OC(C)(C)C)C(=O)O [Compound 205, (S)-2-tert-butoxy-2-(7-(4-chlorophenyl)-5-methyl-2-(2-(1-methylpiperidin-4-yl)pyrimidin-4-yl)benzo[d]thiazol-6-yl)acetic acid] | 18
20 | Cc1cc2nc(N3CCc4ncccc4C3)sc2c(-c2ccc(Cl)cc2)c1[C@H](OC(C)(C)C)C(=O)O [Compound 207, (S)-2-tert-butoxy-2-(7-(4-chlorophenyl)-2-(7,8-dihydro-1,6-naphthyridin-6(5H)-yl)-5-methylbenzo[d]thiazol-6-yl)acetic acid] | 19
21 | Cc1cc2nc(N3CCc4ccccc4C3)sc2c(-c2ccc(Cl)cc2)c1[C@H](OC(C)(C)C)C(=O)O [Compound 208, (S)-2-tert-butoxy-2-(7-(4-chlorophenyl)-2-(3,4-dihydroisoquinolin-2(1H)-yl)-5-methylbenzo[d]thiazol-6-yl)acetic acid] | 62
22 | Cc1cc2nc(-c3ccc4c(C)nn(C)c4c3)sc2c(-c2ccc(Cl)cc2)c1[C@H](OC(C)(C)C)C(=O)O [Compound 209, (S)-2-tert-butoxy-2-(7-(4-chlorophenyl)-2-(1,3-dimethyl-1H-indazol-6-yl)-5-methylbenzo[d]thiazol-6-yl)acetic acid] | 16
23 | Cc1cc2nc(-c3ccc4c(c3)nnn4C)sc2c(-c2ccc(Cl)cc2)c1[C@H](OC(C)(C)C)C(=O)O [Compound 210, (S)-2-tert-butoxy-2-(7-(4-chlorophenyl)-5-methyl-2-(1-methyl-1H-benzo[d][1,2,3]triazol-5-yl)benzo[d]thiazol-6-yl)acetic acid] | 6
24 | Cc1cc2nc(-c3ccc4c(c3)c(-c3ccncc3)nn4C)sc2c(-c2ccc(Cl)cc2)c1[C@H](OC(C)(C)C)C(=O)O [Compound 213, (S)-2-tert-butoxy-2-(7-(4-chlorophenyl)-5-methyl-2-(1-methyl-3-(pyridin-4-yl)-1H-indazol-5-yl)benzo[d]thiazol-6-yl)acetic acid] | 4
25 | Cc1cc2nc(-c3ccc4c(c3)c(-c3ccccn3)nn4C)sc2c(-c2ccc(Cl)cc2)c1[C@H](OC(C)(C)C)C(=O)O [Compound 214, (S)-2-tert-butoxy-2-(7-(4-chlorophenyl)-5-methyl-2-(1-methyl-3-(pyridin-2-yl)-1H-indazol-5-yl)benzo[d]thiazol-6-yl)acetic acid] | 17
26 | Cc1cc2nc(-c3ccnc(-c4cc(C)c5c(cnn5C)c4)c3)sc2c(-c2ccc(Cl)cc2)c1[C@H](OC(C)(C)C)C(=O)O [Compound 215, (S)-2-tert-butoxy-2-(7-(4-chlorophenyl)-2-(2-(1,7-dimethyl-1H-indazol-5-yl)pyridin-4-yl)-5-methylbenzo[d]thiazol-6-yl)acetic acid] | 27

Same assay, conditions: Table 2; MT-4 cells infected with HIV-IIIb, 5 days of incubation, CellTiter-Glo; read-out: EC50

Row | SMILES | EC50 [nM]
27 | Cc1cc2nc(-c3ccnc(-c4cnc5c(c4)c(C)cn5C)c3)sc2c(-c2ccc(Cl)cc2)c1[C@H](OC(C)(C)C)C(=O)O [Compound 199, (S)-2-tert-butoxy-2-(7-(4-chlorophenyl)-2-(2-(1,3-dimethyl-1H-pyrrolo[2,3-b]pyridin-5-yl)pyridine-4-yl)-5-methylbenzo[d]thiazol-6-yl)acetic acid] | 95
